According to patent publication US12297453B2, “Generation of norepinephrine neurons from human stem cells” (Wisconsin Alumni Research Foundation, priority 2020, dated 2025):

Legend:
hESC-derived NE neurons = experiment: NE content in supernatant of NE neuron culture by ELISA; assay type: cell-based, human
Experimental: gRNA was designed according to Benchling. Donor plasmid was generated by NEBuilder® HiFi DNA Assembly Master Mix (NEB, E2621S). Briefly, hPSCs were digested by TrypLE Express. Gene Pulser Xcell (Bio-Rad) was used for CRISPR/Cas9 delivery. Two-million cells were electroporated with 15 μg of sgRNA plasmid (pLenti-CRISPR) with 30 μg donor plasmid. Cells were plated at ˜150,000 cells/well of 6-well plate. Starting 24 hours after electroporation, 0.5 μg/ml puromycin were added to the culture medium. After 3 days of puromycin selection, hPSCs were switched to their normal culture medium and fed every other day until approximately 1-2 weeks after electroporation when distinct colonies were established. • Cell transplantation: Small aggregates of NE neural progenitors (day 10-day 12) were collected and suspended in artificial cerebral spinal fluid (aCSF) containing Rock inhibitor (0.5 μM), at a concentration of 100,000 cells/μl. 1 μl of cells were slowly injected into the left cortex (AP=+0.0 mm, ML=+1.8 mm, DV=−1.7 mm, from skull) of adult SCID mice (8-12 weeks) that were anesthetized with 1%-2% isoflurane mixed in oxygen. • Immunocytochemistry and flow cytometry: Immunocytochemistry was performed as described previously. See Huang et al., 2016, Sci Rep, 6:32600, doi:10.1038/srep32600. In brief, cells on coverslips were fixed in 4% neutral-buffered paraformaldehyde (PFA) for 10 minutes (min) at room temperature. Following rinsing with PBS, these cells were incubated in 0.2% Triton X-100 (in phosphate buffered saline (PBS)) for 10 min followed by 10% donkey serum (in PBS) at room temperature for 1 hour (h). The cells were then incubated with primary antibodies diluted in 5% donkey serum in 0.1% Triton X100 (in PBS) at 4° C. overnight, followed by fluorescently conjugated secondary antibodies at room temperature for 30 min. The nuclei were stained with Hoechst. Images were collected with a Nikon A1 laser-scanning confocal microscope. Flow cytometry was performed using Transcription Factor Buffer Set which is designed for transcription factor staining following manufacturer's instruction. Briefly, single cells were prepared using TrypLE Express Enzyme and fixed in the fixation buffer provided by the kit at 2-8° C. for 45 min. After 3 washings with the permeable buffer, primary antibodies were added to cells for 45 min at 2-8° C. in a light-tight box. Cells were washed three times before fluorescently conjugated secondary antibodies. Second antibodies were incubated with cells for 45 minutes at 2-8° C. in a light-tight box and followed by washing three times. After the last wash, cells were suspended in washing buffer and analyzed by flow cytometry (BD LSR or BD LSRII). […]

[1] = test system: GRABNE1m sensor-expressing NE neurons; experiment: Fluorescence imaging of GRABNE1m sensor cells; assay type: cell-based, human; conditions: norepinephrine reuptake inhibitor treatment
[2] = test system: human ESC-derived NE neurons; experiment: Whole-cell patch clamp recording of spontaneous action potential firing; assay type: cell-based; conditions: 1 mM; reversed upon washing away
Experimental: gRNA was designed according to Benchling. Donor plasmid was generated by NEBuilder® HiFi DNA Assembly Master Mix (NEB, E2621S). Briefly, hPSCs were digested by TrypLE Express. Gene Pulser Xcell (Bio-Rad) was used for CRISPR/Cas9 delivery. Two-million cells were electroporated with 15 μg of sgRNA plasmid (pLenti-CRISPR) with 30 μg donor plasmid. Cells were plated at ˜150,000 cells/well of 6-well plate. Starting 24 hours after electroporation, 0.5 μg/ml puromycin were added to the culture medium. After 3 days of puromycin selection, hPSCs were switched to their normal culture medium and fed every other day until approximately 1-2 weeks after electroporation when distinct colonies were established. • Cell transplantation: Small aggregates of NE neural progenitors (day 10-day 12) were collected and suspended in artificial cerebral spinal fluid (aCSF) containing Rock inhibitor (0.5 μM), at a concentration of 100,000 cells/μl. 1 μl of cells were slowly injected into the left cortex (AP=+0.0 mm, ML=+1.8 mm, DV=−1.7 mm, from skull) of adult SCID mice (8-12 weeks) that were anesthetized with 1%-2% isoflurane mixed in oxygen. • Immunocytochemistry and flow cytometry: Immunocytochemistry was performed as described previously. […] After the last wash, cells were suspended in washing buffer and analyzed by flow cytometry (BD LSR or BD LSRII). […]

[3] = test system: human NE neuron progenitor cells; conditions: in neural differentiation medium
Excerpt: On day 5, change the medium without SB431542. […] Cells were feed daily.

| Compound | NE content in the supernatants (hESC-derived NE neurons) | GRABNE1m sensor intensity (extracellular norepinephrine) [1] | sAP firing rate [2] | yield of human TH+/DBH+ NE neurons [3] |
| --- | --- | --- | --- | --- |
| CNCC[C@@H](Oc1ccccc1C)c1ccccc1 [Tomoxetine] | increased the NE content | increase | – | – |
| CCOc1ccccc1OC(c1ccccc1)C1CNCCO1 (stereo not shown) [Reboxetine] | increased the NE content | increase | – | – |
| Clc1cccc(Cl)c1N=C1NCCN1 [Clonidine] | – | – | reduced the sAP firing rating significantly | – |
| Nc1ncnc2c1ncn2[C@@H]1O[C@@H]2COP(=O)(O)O[C@H]2[C@H]1O [cAMP] | – | – | – | boost yield |
| CNCCCC12CCC(c3ccccc31)c1ccccc12 [Maprotiline] | increased the NE content | increase | – | – |
| CNCCC(Oc1ccccc1OC)c1ccccc1 (stereo not shown) [Nisoxetine] | increased the NE content | increase | – | – |
